Results published in US12492188B2, “1H-benzo[D]imidazole derivatives as TLR9 inhibitors for the treatment of fibrosis” (BRISTOL-MYERS SQUIBB COMPANY, priority 2020, dated 2025).
Where two headings read alike, the source gives them in different places.

Columns and labels:
Type in all cases: cell-based
human TLR9 = target: T1, human TLR9 (Homo sapiens, UniProt Q9NR96); assay: TLR9 inhibition reporter assay (HEK-Blue cells, secreted embryonic alkaline phosphatase reporter)
T1 construct: host or cells: HEK-Blue cells (HEK293-derived reporter line)
T1 sequence (Q9NR96 26-1032): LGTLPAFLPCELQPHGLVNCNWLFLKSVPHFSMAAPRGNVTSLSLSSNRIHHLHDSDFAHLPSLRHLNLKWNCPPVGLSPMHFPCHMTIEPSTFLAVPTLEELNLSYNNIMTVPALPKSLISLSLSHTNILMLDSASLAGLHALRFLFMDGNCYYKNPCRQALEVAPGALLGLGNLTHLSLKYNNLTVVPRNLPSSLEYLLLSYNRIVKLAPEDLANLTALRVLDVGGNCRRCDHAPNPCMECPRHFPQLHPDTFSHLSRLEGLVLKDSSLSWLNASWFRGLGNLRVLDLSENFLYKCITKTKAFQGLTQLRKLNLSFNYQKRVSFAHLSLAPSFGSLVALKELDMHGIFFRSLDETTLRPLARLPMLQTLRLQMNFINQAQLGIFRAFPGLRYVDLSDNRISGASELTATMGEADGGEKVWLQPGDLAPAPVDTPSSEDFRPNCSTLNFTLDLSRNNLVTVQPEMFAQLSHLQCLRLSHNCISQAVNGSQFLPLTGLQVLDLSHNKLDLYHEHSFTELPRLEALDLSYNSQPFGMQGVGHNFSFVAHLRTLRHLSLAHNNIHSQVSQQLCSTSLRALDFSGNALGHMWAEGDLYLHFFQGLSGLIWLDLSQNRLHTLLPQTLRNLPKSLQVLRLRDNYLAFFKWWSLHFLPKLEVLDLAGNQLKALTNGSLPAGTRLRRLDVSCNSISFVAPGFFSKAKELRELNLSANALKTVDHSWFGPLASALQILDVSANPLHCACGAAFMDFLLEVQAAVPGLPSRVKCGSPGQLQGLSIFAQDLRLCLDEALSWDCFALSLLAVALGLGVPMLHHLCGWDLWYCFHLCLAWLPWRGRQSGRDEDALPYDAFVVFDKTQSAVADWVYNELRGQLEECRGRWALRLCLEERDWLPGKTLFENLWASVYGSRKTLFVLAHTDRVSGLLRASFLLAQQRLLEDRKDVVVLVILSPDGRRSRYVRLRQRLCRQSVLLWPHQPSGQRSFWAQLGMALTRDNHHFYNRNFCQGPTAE
In short: (§1)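 Inhibitors are tested in dose response (0.05 nM–50 μM) on HEK-Blue reporter cells expressing human TLR7, TLR8 or TLR9. After 30 min at room temperature, each line is stimulated with its own agonist (gardiquimod 7.5 μM, R848 15.9 μM or ODN2006 5 nM, final) and SEAP is measured 22 h later.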

human TLR7 = target: T2, human TLR7 (Homo sapiens, UniProt Q9NYK1); assay: TLR7 inhibition reporter assay (HEK-Blue cells, secreted embryonic alkaline phosphatase reporter); details: HEK-Blue cells overexpressing human TLR7, stimulated with gardiquimod 7.5 μM; read-out: TLR 7 IC50
T2 construct: host or cells: HEK-Blue cells (HEK293-derived reporter line)
T2 sequence (Q9NYK1 27-1049): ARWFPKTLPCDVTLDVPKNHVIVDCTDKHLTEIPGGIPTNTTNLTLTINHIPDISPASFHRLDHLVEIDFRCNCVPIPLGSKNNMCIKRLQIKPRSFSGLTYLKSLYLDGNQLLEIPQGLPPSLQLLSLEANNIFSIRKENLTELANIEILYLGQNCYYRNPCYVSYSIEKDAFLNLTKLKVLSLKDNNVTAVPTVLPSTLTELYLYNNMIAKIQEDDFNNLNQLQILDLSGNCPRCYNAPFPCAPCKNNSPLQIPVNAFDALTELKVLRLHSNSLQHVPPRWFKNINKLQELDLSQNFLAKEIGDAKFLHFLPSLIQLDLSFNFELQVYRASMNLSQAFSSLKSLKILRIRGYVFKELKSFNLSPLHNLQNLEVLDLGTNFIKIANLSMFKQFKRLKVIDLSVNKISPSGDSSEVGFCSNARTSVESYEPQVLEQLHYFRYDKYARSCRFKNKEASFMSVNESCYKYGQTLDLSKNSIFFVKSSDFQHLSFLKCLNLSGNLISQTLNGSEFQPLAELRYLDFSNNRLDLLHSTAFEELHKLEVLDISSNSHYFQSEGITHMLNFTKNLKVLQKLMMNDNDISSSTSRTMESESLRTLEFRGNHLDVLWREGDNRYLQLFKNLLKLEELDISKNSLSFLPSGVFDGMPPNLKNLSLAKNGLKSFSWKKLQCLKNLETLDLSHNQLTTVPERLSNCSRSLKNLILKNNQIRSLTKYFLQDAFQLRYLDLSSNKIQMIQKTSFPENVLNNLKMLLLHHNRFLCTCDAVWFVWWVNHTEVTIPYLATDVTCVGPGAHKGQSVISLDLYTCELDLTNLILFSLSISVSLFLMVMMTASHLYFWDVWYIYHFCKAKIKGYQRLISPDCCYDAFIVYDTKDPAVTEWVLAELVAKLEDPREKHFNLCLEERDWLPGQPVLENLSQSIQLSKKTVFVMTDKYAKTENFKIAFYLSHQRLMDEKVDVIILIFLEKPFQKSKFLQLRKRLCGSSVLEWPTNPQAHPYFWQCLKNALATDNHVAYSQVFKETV
In short: as §1

human TLR8 = target: T3, human TLR8 (Homo sapiens, UniProt Q9NR97); assay: TLR8 inhibition reporter assay (HEK-Blue cells, secreted embryonic alkaline phosphatase reporter); details: HEK-Blue cells overexpressing human TLR8, stimulated with R848 15.9 μM; read-out: TLR 8 IC50
T3 construct: host or cells: HEK-Blue cells (HEK293-derived reporter line)
T3 sequence (Q9NR97 27-1041): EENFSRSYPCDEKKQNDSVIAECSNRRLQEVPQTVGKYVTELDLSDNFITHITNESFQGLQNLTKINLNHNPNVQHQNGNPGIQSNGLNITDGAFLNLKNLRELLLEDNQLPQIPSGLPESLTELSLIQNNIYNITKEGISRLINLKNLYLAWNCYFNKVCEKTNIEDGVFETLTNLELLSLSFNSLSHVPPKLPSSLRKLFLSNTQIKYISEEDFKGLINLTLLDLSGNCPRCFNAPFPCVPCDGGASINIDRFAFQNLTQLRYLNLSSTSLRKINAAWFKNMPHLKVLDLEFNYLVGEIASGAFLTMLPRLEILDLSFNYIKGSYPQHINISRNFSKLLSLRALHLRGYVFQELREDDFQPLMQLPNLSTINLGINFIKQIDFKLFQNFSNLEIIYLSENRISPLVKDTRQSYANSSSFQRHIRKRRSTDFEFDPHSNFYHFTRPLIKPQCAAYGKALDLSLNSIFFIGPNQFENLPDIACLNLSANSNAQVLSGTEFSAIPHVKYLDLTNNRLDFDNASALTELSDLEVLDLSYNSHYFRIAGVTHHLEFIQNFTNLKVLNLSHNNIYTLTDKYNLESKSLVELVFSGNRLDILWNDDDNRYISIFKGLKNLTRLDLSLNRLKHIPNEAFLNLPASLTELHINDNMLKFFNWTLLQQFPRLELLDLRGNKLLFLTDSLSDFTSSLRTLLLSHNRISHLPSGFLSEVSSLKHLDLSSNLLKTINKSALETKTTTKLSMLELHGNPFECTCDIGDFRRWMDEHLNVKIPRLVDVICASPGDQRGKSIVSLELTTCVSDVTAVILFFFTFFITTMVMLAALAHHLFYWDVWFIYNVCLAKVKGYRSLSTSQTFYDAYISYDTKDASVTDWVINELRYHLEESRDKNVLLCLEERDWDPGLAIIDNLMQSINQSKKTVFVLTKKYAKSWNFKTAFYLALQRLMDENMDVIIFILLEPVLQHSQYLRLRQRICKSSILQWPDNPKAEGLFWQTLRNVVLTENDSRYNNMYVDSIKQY
In short: as §1

[1] = HEK-Blue cells overexpressing human TLR9, stimulated with ODN2006 5 nM, read-out: TLR 9 IC50
[2] = HEK-Blue human TLR9 reporter cells

| SMILES | IC50 (human TLR9; [1]) [nM] | IC50 (human TLR9; [2]) [nM] | IC50 (human TLR7) [nM] | IC50 (human TLR8) [nM] |
| --- | --- | --- | --- | --- |
| Cc1cc(C2CCN(C3CC4CCC(C3)N4CC3CC3)CC2)cc2[nH]c(-c3ccc(S(C)(=O)=O)cc3)nc12 (centres unmarked) [Example 335, 6-(1-(8-(cyclopropylmethyl)-8-azabicyclo[3.2.1]octan-3-yl)piperidin-4-yl)-4-methyl-2-(4-(methylsulfonyl)phenyl)-1H-benzo[d]imidazole] | 130 | 130 | > 50000 | > 50000 |
| Cc1cc(C2CCN(C3CC4CCC(C3)N4CC3CC3)CC2)cc2[nH]c(-c3ccc(S(C)(=O)=O)cc3)nc12 (centres unmarked) [Example 336, 6-(1-(8-(cyclopropylmethyl)-8-azabicyclo[3.2.1]octan-3-yl)piperidin-4-yl)-4-methyl-2-(4-(methylsulfonyl)phenyl)-1H-benzo[d]imidazole] | 77 | 77 | 25400 | > 50000 |
| Cc1cc(C2CCN(C3CCN(C4CCC4)CC3)CC2)cc2c1nc(-c1ccc(S(C)(=O)=O)c(F)c1)n2C [Example 337, 6-(1′-cyclobutyl-[1,4′-bipiperidin]-4-yl)-2-(3-fluoro-4-(methylsulfonyl)phenyl)-1,4-dimethyl-1H-benzo[d]imidazole] | 53 | 53 | 1200 | > 50000 |
| Cc1cc(C2CCN(C3CCN(CC4CC4)CC3)CC2)cc2c1nc(-c1ccc(S(C)(=O)=O)c(F)c1)n2C [Example 338, 6-(1′-(cyclopropylmethyl)-[1,4′-bipiperidin]-4-yl)-2-(3-fluoro-4-(methylsulfonyl)phenyl)-1,4-dimethyl-1H-benzo[d]imidazole] | 258 | 260 | 3800 | > 50000 |
| Cc1cc(C2CCN(C3CCN(C4CC4)CC3)CC2)cc2c1nc(-c1ccc(S(C)(=O)=O)c(F)c1)n2C [Example 339, 6-(1′-cyclopropyl-[1,4′-bipiperidin]-4-yl)-2-(3-fluoro-4-(methylsulfonyl)phenyl)-1,4-dimethyl-1H-benzo[d]imidazole] | 343 | 340 | 12700 | > 25000 |
| Cc1cc(C2CCN(C3CC4CCC(C3)N4CC3CC3)CC2)cc2c1nc(-c1ccc(S(C)(=O)=O)c(F)c1)n2C (centres unmarked) [Example 341, 6-(1-(8-(cyclopropylmethyl)-8-azabicyclo[3.2.1]octan-3-yl)piperidin-4-yl)-2-(3-fluoro-4-(methylsulfonyl)phenyl)-1,4-dimethyl-1H-benzo[d]imidazole] | 37 | 37 | 2200 | 16700 |
| Cc1cc(C2CCN(C3CC4CCC(C3)N4CC(C)C)CC2)cc2c1nc(-c1ccc(S(C)(=O)=O)c(F)c1)n2C (centres unmarked) [Example 342, 2-(3-fluoro-4-(methylsulfonyl)phenyl)-6-(1-(8-isobutyl-8-azabicyclo[3.2.1]octan-3-yl)piperidin-4-yl)-1,4-dimethyl-1H-benzo[d]imidazole] | 123 | 120 | 12700 | > 25000 |
| Cc1cc(C2CCN(C3CCN(CC(C)C)CC3)CC2)cc2c1nc(-c1ccc(S(C)(=O)=O)c(F)c1)n2C [Example 343, 2-(3-fluoro-4-(methylsulfonyl)phenyl)-6-(1′-isobutyl-[1,4′-bipiperidin]-4-yl)-1,4-dimethyl-1H-benzo[d]imidazole] | 156 | 160 | 12600 | > 25000 |

The remaining lines, values ahead:

| IC50 (human TLR9; [1]) [nM] | IC50 (human TLR9; [2]) [nM] | IC50 (human TLR7) [nM] | IC50 (human TLR8) [nM] | SMILES |
| --- | --- | --- | --- | --- |
| 12.4 | 120 | 10800 | > 50000 | Cc1cc(C2CCN(C3CC4CCC(C3)N4C(C)C)CC2)cc2c1nc(-c1ccc(S(C)(=O)=O)c(F)c1)n2C (centres unmarked) [Example 344, 2-(3-fluoro-4-(methylsulfonyl)phenyl)-6-(1-(8-isopropyl-8-azabicyclo[3.2.1]octan-3-yl)piperidin-4-yl)-1,4-dimethyl-1H-benzo[d]imidazole] |
| 56 | 56 | 7600 | > 25000 | Cc1cc(C2CCN(C3CC4CCC(C3)N4CC(C)C)CC2)cc2[nH]c(-c3ccc(S(C)(=O)=O)c(F)c3)nc12 (centres unmarked) [Example 346, 2-(3-fluoro-4-(methylsulfonyl)phenyl)-6-(1-(8-isobutyl-8-azabicyclo[3.2.1]octan-3-yl)piperidin-4-yl)-4-methyl-1H-benzo[d]imidazole] |
| 16 | 16 | 100 | 8200 | COc1cc(-c2nc3c(C)cc(C4CCN(C5CCN(CC(C)C)CC5)CC4)cc3n2C)cn2ncnc12 [Example 353, 6-(6-(1′-isobutyl-[1,4′-bipiperidin]-4-yl)-1,4-dimethyl-1H-benzo[d]imidazol-2-yl)-8-methoxy-[1,2,4]triazolo[1,5-a]pyridine] |
